Test results reported in BigSolDB 2.1.

N#Cc1ccc2c(c1)OCO2
solubility (mole fraction)
Details | 278.15 K | 283.15 K | 288.15 K | 293.15 K | 298.15 K | 303.15 K | 308.15 K | 313.15 K | 318.15 K | 323.15 K
in 1,4-dioxane | – | – | 0.174 | 0.197 | 0.221 | 0.256 | 0.283 | 0.325 | 0.358 | 0.406
in 2-methoxyethanol | 0.0495 | 0.0606 | 0.0722 | 0.0849 | 0.101 | 0.119 | 0.137 | 0.16 | 0.192 | 0.221
in DMF | 0.172 | 0.193 | 0.212 | 0.239 | 0.264 | 0.293 | 0.32 | 0.36 | 0.39 | 0.433
in acetone | 0.101 | 0.118 | 0.136 | 0.158 | 0.181 | 0.207 | 0.237 | 0.269 | 0.307 | 0.349
in acetonitrile | 0.0673 | 0.0811 | 0.0999 | 0.12 | 0.143 | 0.173 | 0.203 | 0.243 | 0.283 | 0.33
in ethanol | 0.00686 | 0.00878 | 0.0111 | 0.0133 | 0.0166 | 0.0214 | 0.0266 | 0.034 | 0.0435 | 0.0548
in ethyl acetate | 0.0892 | 0.102 | 0.118 | 0.14 | 0.166 | 0.187 | 0.217 | 0.247 | 0.282 | 0.322
in isopropanol | 0.00473 | 0.00606 | 0.00772 | 0.00933 | 0.0127 | 0.0168 | 0.0202 | 0.0268 | 0.0338 | 0.0445
in isopropyl acetate | 0.0657 | 0.0784 | 0.0948 | 0.112 | 0.13 | 0.155 | 0.179 | 0.211 | 0.243 | 0.277
in methanol | 0.00823 | 0.0104 | 0.0123 | 0.0157 | 0.0192 | 0.024 | 0.031 | 0.0387 | 0.0495 | 0.0617
in methyl acetate | 0.102 | 0.118 | 0.137 | 0.16 | 0.184 | 0.21 | 0.24 | 0.274 | 0.31 | 0.353
in n-propanol | 0.00603 | 0.00758 | 0.00949 | 0.0122 | 0.0159 | 0.02 | 0.0255 | 0.0329 | 0.0433 | 0.0573
in n-propyl acetate | 0.0785 | 0.0928 | 0.113 | 0.128 | 0.149 | 0.176 | 0.204 | 0.235 | 0.27 | 0.31
